From patent US20110124842A1 (priority 2003, published 2011) come the findings set out here.

The subject of experiment [1] is IgG 4E10. Kind of experiment: Competitive ELISA (IC50): peptide competes with biotinylated 4E10-epitope peptide for IgG 4E10. In kind it is binding, human. As to conditions: for increased binding affinity in comparison with its peptide control: 33-1 vs control 44-1, 104-2 vs control 104-1, ELISA; for higher affinity of 4E10 than to the original peptide KGND: as determined by surface plasmon resonance and ELISA. The method, then:
IC50, were determined by competitive ELISA using a constant concentration of biotinylated peptide and IgG with a variable concentration of gp41 peptides. Microwells were coated overnight at 4° C. with 50 μl PBS containing neutravidin (Pierce; 4 μg/ml). […] A mixture of a biotinylated 4E10-epitope peptide, […](biotin)-NH2 (SEQ ID NO: 88) (20 nM), IgG 4E10 (0.2 nM), and the competing peptide analog (3-fold dilution series starting at 10 μM) in 0.4% non-fat dry milk, 0.02% Tween and PBS was incubated in a separate 96-well plate at 37° C. for 2 hours. After washing the blocked plate, the mixture of 4E10, biotinylated peptide and competing peptide was added to the wells. After 20 minutes at room temperature, the Wells were washed five times, and a 1:500 dilution of goat anti-human IgG F(ab′)2 HRP conjugate (Pierce) was added. Following incubation at RT for 40 minutes, the wells were washed five times, and developed by adding 50 μl of TMB solution (Pierce) according to the manufacturer's instructions. After ˜20 minutes, wells containing TMB solution were stopped by adding 50 μl of H2SO4 (2M) and the O.D. at 450 nm was read on a microplate reader (Molecular Devices). The concentration of competitor peptide corresponding to a half-maximal signal (IC50) was determined by interpolation of the resulting binding curve. Each peptide competitor was tested in duplicate in at least two separate experiments.
IC50s were determined by competitive ELISA using a constant concentration of biotinylated peptide and IgG with a variable concentration of gp41 peptides. Microwells were coated overnight at 4° C. with 50 μl PBS containing neutravidin (Pierce; 4 μg/ml). […] Meanwhile, a mixture of a biotinylated 4E10-peptide epitope, […](biotin)-NH2 (SEQ ID NO: 88), (20 nM), IgG 4E10 (0.2 nM), and the competing peptide analogue (3-fold dilution series starting at 10 μM) in 0.4% NFDM, 0.02% Tween and PBS was incubated in a separate 96-well plate at 37° C. for 2 h. After washing the blocked plate, the mixture of 4E10, biotinylated peptide and competing peptide was added to the wells. After 20 min at room temperature, the wells were washed five times, and a 1:500 dilution of goat anti-human IgG F(ab′)2 HRP conjugate (Pierce) was added. Following incubation at RT for 40 min, the wells were washed five times, and developed by adding 50 μl of H2SO4 (2 M), and the O.D. at 450 nm was read on a microplate reader (Molecular Devices). The concentration of competitor peptide corresponding to a half-maximal signal (IC50) was determined by interpolation of the resulting binding curve. Each peptide competitor was tested in duplicate in at least two separate experiments.
A general note: ELISA stands for enzyme-linked immunosorbent assay.

The target of experiment [2] is Fab 4E10. As to the kind of experiment: Surface plasmon resonance (Biacore 2000), Fab 4E10 on CM5 chip. In kind it is binding, human. The method, then:
The affinitiefs of the peptide analogs for 4E10 were also measured by surface plasmon resonance. Surface plasmon resonance experiments were performed using a Biacore 2000 instrument (Uppsala, Sweden). Around 2,200 response units (RU) of Fab 4E10 were coated on CM5 chips. The carboxyl groups on the chip were activated with 1-ethyl-3-(3-dimethylaminopropyl)carbodiimide hydrochloride (EDC) and N-hydroxysuccinimide (NHS). Fifty micrograms of Fab were diluted in 10 mM sodium acetate pH 4.5; a flow rate of 5 μl/min was used. Unreacted carboxyl groups were blocked with 1M ethanolamine at pH 8.5. The control was treated in the same fashion without any antibody present. Different amounts of free peptides were then passed over the surfaces at 30 or 50 μl/min for 2 min. Regeneration was done in HPS-EP buffer, 0.25 NaCl (Biacore) in 10 minutes. The amount of salt was increased compared to the commercial buffer to reduce the non-specific binding. For data evaluation, the BIAevaluation software was used. RI and Rmax were controlled, double referencing were done (0 concentration and start point). Analyses were performed to achieve the best curve fitting and small chi^2 (<1).
Surface plasmon resonance experiments were performed using a Biacore 2000 instrument (Uppsala, Sweden).
Chip preparation: around 2,200 response units (RU) of Fab 4E10 were coated on CM5 chips. The carboxyl groups on the chip were activated with 1-ethyl-3-(3-dimethylaminopropyl) carbodiimide hydrochloride (EDC) and N-hydroxysuccinimide (NHS). Fifty micrograms of Fab was diluted in 10 mM sodium acetate pH 4.5; a flow rate of 5 μl/min was used. Unreacted carboxyl groups were blocked with 1M ethanolamine at pH 8.5. The control was treated in the same fashion without any antibody present.
Experiment: different amounts of free peptides were then passed over the surfaces at 30 or 50 μl/min for 2 min. Regeneration was done in HPS-EP buffer, 0.25 NaCl (Biacore) in 10 min. The amount of salt was increased compared to the commercial buffer to reduce the non-specific binding.
Data evaluation: the BIAevaluation software was used. RI and Rmax were controlled, double referencing were done (0 concentration and start point). Analyses were performed to achieve the best curve fitting and small chi^2 (<1).
(In general: In SPR one partner is held on a chip, and binding of the other changes the refractive index at the surface.)

Experiment [3] addresses recombinant IgG1(kappa) 4E10. As to the kind of experiment: competitive ELISA: peptide against biotinylated …(biotin)-NH2 for IgG 4E10.
Experiment [4] has as its target Fab 4E10. Kind of experiment: SPR (Biacore 2000), Fab 4E10 on CM5 chip, peptide in flow.
Experiment [5] deals with recombinant IgG1(kappa) 4E10. As to the kind of experiment: competitive ELISA.
recombinant IgG1(kappa) 4E10, sequence (heavy, as listed by the source): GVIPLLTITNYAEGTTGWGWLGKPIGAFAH
Setting [6] is: Table 5, unconstrained peptide analogs, 4E10 binding, read-out: IC50.
Where [7] appears, read: Table 6, constrained analogs, 4E10 binding, read-out: IC50.
Setting [8] is: Table 7, 4E10 peptide epitopes, read-out: IC50.
Where [9] appears, read: read-out: IC50 (4E10 binding, competitive ELISA).
Setting [10] is: Table 6, constrained analogs, 4E10 binding, read-out: Kd.
The mark [11] stands for this setting: Table 7, 4E10 peptide epitopes, read-out: Kd.

Where two headings read alike, the source gives them in different places. Bridges are numbered along the chain shown (N, C = ends). Where no end group is shown, it is not given here. [ ]: non-standard residue; d: D form. code O = not defined here; Orn = NCCC[C@H](N)C(=O)O; Aib = CC(C)(N)C(=O)O

Fab 4E10, sequence (heavy, as listed by the source): as above

As to KGWNWFDITNWGK [KGND], the IC50 – broadly, the concentration needed to halve the response being measured – is over 10 µM in experiment [1] (setting [6]), over 10 µM in experiment [1] (setting [7]), over 10 µM in experiment [1] (setting [8]) and 10 µM in experiment [1] (setting [9]).
For the molecule “NWFDITNWLWRR [Peptide 44-1, NWFDITNWLWRR-NH2]”, the IC50 in experiment [1] (setting [8]) came to 0.6 µM.
In the case of “WNWFDITNWLWKKKK [Peptide 84-2, WNWFDITNWLWKKKK-NH2]”, in experiment [1] (setting [6]), the IC50 stood at 0.12 µM.
The same measure, in the same setting: the figure for “SLWNWFDITNWLWKKKK [Peptide 84-4, SLWNWFDITNWLWKKKK-NH2]” is 0.12 µM.
Turning to “KKBNWFDITNWLWKBKBK-NH2 (KKXNWFDITNWLWKXKXK-NH2; not fully specified (residues 3, 15, 17); printed as KKBNWFDITNWLWKBKBK-NH2) [Peptide 102-2]”, in experiment [1] (setting [7]), the IC50 stood at 0.01 µM.
In the case of NWFDITNWLWKBKBK-NH2 [Peptide 102-1], the IC50 in experiment [1] (setting [9]) was 0.01 µM.
Turning to “NWFDITNWLWKKKK [Peptide 84-1, NWFDITNWLWKKKK-NH2]”, in experiment [1] (setting [9]), the half-maximal inhibitory concentration (IC50) is 0.04 µM. For the same molecule, the Kd (in general, the constant that tells how readily two partners part at equilibrium) in experiment [2] (Table 5, unconstrained peptide analogs, 4E10 binding, read-out: Kd) was 0.1 µM.
Turning to “NWFc(CITO)WLWKKKK-NH2 (NWFCIT[code O]WLWKKKK-NH2; bridge 4-7; reading uncertain; also: printed as NWFc(CITO)WLWKKKK-NH2) [Peptide 104-2]”, the “increased binding affinity in comparison with its peptide control” value in experiment [1] worked out at 4 fold. Also, the IC50 in experiment [1] (setting [7]), in experiment [1] (setting [8]) and in experiment [1] (setting [9]) was 0.01 µM in each case. For the same molecule, the “higher affinity of 4E10 than to the original peptide KGND” value in experiment [1] is listed as “approximately 10^3 fold”. The Kd in experiment [2] (setting [10]), in experiment [2] (setting [11]) and in experiment [2] (read-out: Kd (Biacore)) was 0.017 µM in each case. Besides, in experiment [2] (Table 7), the “higher affinity of 4E10 than to peptide 33-1” value is recorded as “about 17 fold”. Further, the koff (as a rule, a measure of how fast the partners let go of each other) in experiment [2] (Table 7) was determined as 0.0034 s⁻¹. Besides, the kon (commonly the rate constant with which the complex forms) in experiment [2] (Table 7) amounted to 202000 M⁻¹ s⁻¹.
As for “c(CWFO)ITNWLWKKKK-NH2 (CWF[code O]ITNWLWKKKK-NH2; bridge 1-4; reading uncertain; also: printed as c(CWFO)ITNWLWKKKK-NH2) [Peptide 74-2]”, the half-inhibitory concentration (IC50) in experiment [1] (setting [7]) worked out at 0.23 µM. For the same molecule, the Kd in experiment [2] (setting [10]) was found to be 0.276 µM.
On to “NWFCITOWLWKKKK-NH2 (NWFCIT[code O]WLWKKKK-NH2; not fully specified; printed as NWFCITOWLWKKKK-NH2; reading uncertain) [Peptide 104-1]”, for which the IC50 in experiment [1] (setting [6]) and in experiment [1] (setting [8]) was 0.04 µM in each case.
For the molecule NWFDITN-Aib-LWRR-NH2 [Peptide 33-1], in experiment [1], the “increased binding affinity in comparison with its peptide control” value is reported as 3 fold and the “higher affinity of 4E10 than to the original peptide KGND” value is given as “approximately 10^3 fold”. Moreover, in experiment [1] (setting [8]), the IC50 lay in the range of 0.1 to 0.4 µM. In experiment [2] (Table 7), this molecule displayed a koff of 0.13 s⁻¹ and a kon of 431000 M⁻¹ s⁻¹. Also, the dissociation constant Kd in experiment [2] (setting [11]) amounted to 0.302 µM.
As for “SLWNWFDITNWLWYIKKKK [SLWNWFDITNWLWYIKKKK-NH2]”, the IC50 in experiment [1] (setting [9]) was determined as 0.01 µM.
As to KGWNWFDITNWGK (not fully specified) [peptide KGND (…)], in experiment [3], the IC50 was over 10 µM.

B1: peptide 102-1, …BKBK-NH2 (peptide)
peptide: NWFDITNWLWK[Aib]K[Aib]K-NH2
modifications: N-terminus assumed
SMILES: CC[C@H](C)[C@H](NC(=O)[C@H](CC(=O)O)NC(=O)[C@H](Cc1ccccc1)NC(=O)[C@H](Cc1c[nH]c2ccccc12)NC(=O)[C@@H](N)CC(N)=O)C(=O)N[C@H](C(=O)N[C@@H](CC(N)=O)C(=O)N[C@@H](Cc1c[nH]c2ccccc12)C(=O)N[C@@H](CC(C)C)C(=O)N[C@@H](Cc1c[nH]c2ccccc12)C(=O)N[C@@H](CCCCN)C(=O)NC(C)(C)C(=O)N[C@@H](CCCCN)C(=O)NC(C)(C)C(=O)N[C@@H](CCCCN)C(N)=O)[C@@H](C)O
Take B1: the concentration for half-maximal inhibition (IC50) in experiment [3] was found to be 0.01 µM.
On the same count and under the same terms, next, NWFDITNWLWRR-NH2 [peptide 44-1, …-NH2]: 0.6 µM; WNWFDITNWLWKKKK-NH2 [peptide 84-2, …-NH2]: 0.12 µM.
On the same count and under the same terms, the figure for NWFCIT[Orn]WLWKKKK-NH2 (not fully specified; printed as NWFCITOWLWKKKK-NH2) [peptide 104-1, NWFCITOWLWKKKK-NH2 (acyclic control)] is 0.04 µM.

B2: peptide 102-2, KKB…BKBK-NH2 (peptide)
peptide: KK[Aib]NWFDITNWLWK[Aib]K[Aib]K-NH2
modifications: N-terminus assumed
SMILES: CC[C@H](C)[C@H](NC(=O)[C@H](CC(=O)O)NC(=O)[C@H](Cc1ccccc1)NC(=O)[C@H](Cc1c[nH]c2ccccc12)NC(=O)[C@H](CC(N)=O)NC(=O)C(C)(C)NC(=O)[C@H](CCCCN)NC(=O)[C@@H](N)CCCCN)C(=O)N[C@H](C(=O)N[C@@H](CC(N)=O)C(=O)N[C@@H](Cc1c[nH]c2ccccc12)C(=O)N[C@@H](CC(C)C)C(=O)N[C@@H](Cc1c[nH]c2ccccc12)C(=O)N[C@@H](CCCCN)C(=O)NC(C)(C)C(=O)N[C@@H](CCCCN)C(=O)NC(C)(C)C(=O)N[C@@H](CCCCN)C(N)=O)[C@@H](C)O
Turning to B2, the IC50 in experiment [3] came out at 0.01 µM.
In turn, CWFXITNWLWKKKK (cyclic thioether between Cys 1 and ornithine (O) 4; C-terminal amide) [peptide 74-2, c(CWFO)…-NH2] gave a Kd in experiment [4] of 0.276 µM. In addition, the half-inhibitory concentration (IC50) in experiment [3] amounted to 0.23 µM.

B3: peptide 104-2, NWFc(CITO)WLWKKKK-NH2 (peptide)
peptide: NWFCIT[Orn]WLWKKKK-NH2
modifications: bridge 4-7; not fully specified (bridges); printed as peptide 104-2, NWFc(CITO)WLWKKKK-NH2
With B3, the fold increase of affinity over its control peptide 104-1 in experiment [5] was 4 fold. Further, in experiment [4], the Kd worked out at 0.017 µM, the koff is 0.0034 s⁻¹ and the kon came out at 202000 M⁻¹ s⁻¹. In addition, the IC50 in experiment [3] is 0.01 µM.
In the case of NWFDITNWLWYIKXKXKK (B = Aib at positions 14 and 16; C-terminal amide) [peptide 119, …BKBKK-NH2], the IC50 in experiment [3] came to 0.01 µM.
